“And” between values parts separate entries of the source, which are not always exact repeats. Identical values can stand only once. Toxic doses and inconclusive results are not listed. Peptide text beside a SMILES is read from it. * marks the point of attachment. Cbz = O=C(OCc1ccccc1)*
System: P388 leukemia ip, CD2F1 mice, survival T/C
Assay: NCI In Vivo Anticancer Drug Screen. Data for tumor model P388 Leukemia (intraperitoneal) in CD2F1 (CDF1) mice
Conditions: endpoint: median survival time, higher = longer survival
In short: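 Mice carrying the transplanted tumor received test compound or vehicle. Survival was recorded in each group, and the value is the treated-group measurement divided by that of the vehicle-treated control group.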

[1] = dose: 50.0 mg/kg/injection, schedule: Q01DX005 (ip), vehicle: Klucel (hydroxypropylcellulose) (HPC)
[2] = dose: 100.0 mg/kg/injection, schedule: Q01DX005 (ip), vehicle: Klucel (hydroxypropylcellulose) (HPC)
[3] = dose: 200.0 mg/kg/injection, schedule: Q01DX005 (ip), vehicle: Klucel (hydroxypropylcellulose) (HPC)
[4] = dose: 50.0 mg/kg/injection, schedule: Q01DX005 (ip), vehicle: saline with Tween-80
[5] = dose: 100.0 mg/kg/injection, schedule: Q01DX005 (ip), vehicle: saline with Tween-80
[6] = dose: 200.0 mg/kg/injection, schedule: Q01DX005 (ip), vehicle: saline with Tween-80
[7] = dose: 12.5 mg/kg/injection, schedule: Q01DX009 (ip), vehicle: saline
[8] = dose: 25.0 mg/kg/injection, schedule: Q01DX009 (ip), vehicle: saline
[9] = dose: 50.0 mg/kg/injection, schedule: Q01DX009 (ip), vehicle: saline
[10] = dose: 100.0 mg/kg/injection, schedule: Q01DX009 (ip), vehicle: saline
[11] = dose: 200.0 mg/kg/injection, schedule: Q01DX009 (ip), vehicle: saline
[12] = dose: 50.0 mg/kg/injection, schedule: Q01DX009 (ip), vehicle: Klucel (hydroxypropylcellulose) (HPC)
[13] = dose: 100.0 mg/kg/injection, schedule: Q01DX009 (ip), vehicle: Klucel (hydroxypropylcellulose) (HPC)
[14] = dose: 200.0 mg/kg/injection, schedule: Q01DX009 (ip), vehicle: Klucel (hydroxypropylcellulose) (HPC)
[15] = dose: 60.0 mg/kg/injection, schedule: Q01DX005 (ip), vehicle: saline with Tween-80
[16] = dose: 120.0 mg/kg/injection, schedule: Q01DX005 (ip), vehicle: saline with Tween-80
[17] = dose: 240.0 mg/kg/injection, schedule: Q01DX005 (ip), vehicle: saline with Tween-80
[18] = dose: 60.0 mg/kg/injection, schedule: Q01DX005 (ip), vehicle: Klucel (hydroxypropylcellulose) (HPC)
[19] = dose: 120.0 mg/kg/injection, schedule: Q01DX005 (ip), vehicle: Klucel (hydroxypropylcellulose) (HPC)
[20] = dose: 240.0 mg/kg/injection, schedule: Q01DX005 (ip), vehicle: Klucel (hydroxypropylcellulose) (HPC)

`CCOC(=O)C(=CNc1ccccc1-n1cccc1)C(=O)OCC` was tested, and the T/C [1] was 100 % of control, the T/C [2] was 108 % of control and the T/C [3] was 93 % of control.

For `CN1c2c(C(=O)Nc3nccs3)nn(-c3ccccc3)c2-c2ccccc2S1(=O)=O`, the T/C (dose: 50.0 mg/kg/injection, schedule: Q01DX005 (ip), vehicle: saline) was 89 % of control, the T/C (dose: 100.0 mg/kg/injection, schedule: Q01DX005 (ip), vehicle: saline) was 92 % of control and the T/C (dose: 200.0 mg/kg/injection, schedule: Q01DX005 (ip), vehicle: saline) was 99 % of control.

In the case of `COC(=O)C1=COC(C)C2CN3CCc4c([nH]c5cc(OC)ccc45)C3CC12` (centres undefined), the T/C [4] was 91 % of control, the T/C [5] was 109 % of control and the T/C [6] was 109 % of control.

With `CCCCCCCCCCCCCCCCCCCCN1CCOCC1` the T/C [7] was 102 % of control, the T/C [8] was 107 % of control and the T/C (dose: 50.0 mg/kg/injection, schedule: Q01DX009 (ip), vehicle: saline with Tween-80) was 92 % of control. For the same compound, the T/C [9] was 101 % of control and 97 % of control, the T/C (dose: 100.0 mg/kg/injection, schedule: Q01DX009 (ip), vehicle: saline with Tween-80) was 90 % of control and the T/C [10] was 100 % of control. The T/C [11] was 90 % of control.

With `CC(=O)[O][Pb]([O]C(C)=O)([c]1ccccc1)[c]1ccccc1` the T/C (dose: 6.25 mg/kg/injection, schedule: Q01DX009 (ip), vehicle: Klucel (hydroxypropylcellulose) (HPC)) was 121 % of control, the T/C (dose: 12.5 mg/kg/injection, schedule: Q01DX009 (ip), vehicle: Klucel (hydroxypropylcellulose) (HPC)) was 124 % of control and the T/C (dose: 17.8 mg/kg/injection, schedule: Q01DX009 (ip), vehicle: saline with Tween-80) was 114 % of control. The T/C (dose: 25.0 mg/kg/injection, schedule: Q01DX009 (ip), vehicle: Klucel (hydroxypropylcellulose) (HPC)) was 119 % of control, the T/C (dose: 30.0 mg/kg/injection, schedule: Q01DX009 (ip), vehicle: Klucel (hydroxypropylcellulose) (HPC)) was 104 % of control and the T/C (dose: 40.0 mg/kg/injection, schedule: Q01DX009 (ip), vehicle: saline with Tween-80) was 123 % of control. The T/C (dose: 45.0 mg/kg/injection, schedule: Q01DX009 (ip), vehicle: Klucel (hydroxypropylcellulose) (HPC)) was 112 % of control, the T/C [12] was 120 % of control and the T/C (dose: 65.0 mg/kg/injection, schedule: Q01DX009 (ip), vehicle: Klucel (hydroxypropylcellulose) (HPC)) was 107 % of control. The T/C [13] was 123 % of control and the T/C (dose: 150.0 mg/kg/injection, schedule: Q01DX009 (ip), vehicle: Klucel (hydroxypropylcellulose) (HPC)) was 150 % of control.

`COc1ccc(Nc2nnc(-c3ccc4c(c3)OCO4)o2)cc1` was tested, and the T/C [1] was 100 % of control, the T/C [2] was 93 % of control and the T/C [3] was 97 % of control.

For `COC(=O)/C(=C\C[C@@H]1CCCC[C@H]1O)CC[Se]c1ccccc1`, the T/C (dose: 50.0 mg/kg/injection, schedule: Q01DX009 (ip), vehicle: distilled water + Tween-80 + alcohol) was 108 % of control, the T/C (dose: 100.0 mg/kg/injection, schedule: Q01DX009 (ip), vehicle: distilled water + Tween-80 + alcohol) was 103 % of control and the T/C (dose: 200.0 mg/kg/injection, schedule: Q01DX009 (ip), vehicle: distilled water + Tween-80 + alcohol) was 98 % of control.

`Nc1nc(N)c2nc(CNc3ccc(C(=O)NC(CCC(=O)O)C(=O)O)cc3)cnc2n1` (centres undefined) was tested, and the T/C (dose: 0.03 mg/kg/injection, schedule: Q01DX009 (ip), vehicle: clinical formulation) was 105 % of control and the T/C (dose: 0.04 mg/kg/injection, schedule: Q01DX009 (ip), vehicle: clinical formulation) was 120 % of control.

In the case of `CC(NC(=O)OCc1ccccc1)C(=O)NC(CO)C(N)=O` (stereo not drawn) (Cbz-Ala-Ser-NH2; configuration not given here), the T/C [1] was 97 % of control, the T/C [2] was 98 % of control and the T/C [3] was 102 % of control.

For `S=c1[nH]ccc2ccccc12`, the T/C [12] was 100 % of control, the T/C [13] was 101 % of control and the T/C [14] was 119 % of control. The T/C (dose: 400.0 mg/kg/injection, schedule: Q01DX009 (ip), vehicle: Klucel (hydroxypropylcellulose) (HPC)) was 105 % of control.

`CCOc1cccc(/C=N/NC(=O)C(=O)Nc2ccc(Cl)c([N+](=O)[O-])c2)c1O` was tested, and the T/C [4] was 100 % of control, the T/C [5] was 89 % of control and the T/C [6] was 90 % of control.

For `COC(=O)C1=C(C(=O)OC)[C]([Hg][CH3])(C(=O)c2ccccc2)N=N1` (centres undefined), the T/C (dose: 6.25 mg/kg/injection, schedule: Q01DX009 (ip), vehicle: saline) was 93 % of control, the T/C [7] was 103 % of control and the T/C [8] was 90 % of control.

With `CCCCCCCC#CC1(C(O)CC)Sc2ccccc2N1C` (centres undefined) the T/C [15] was 107 % of control, the T/C [16] was 101 % of control and the T/C [17] was 105 % of control.

For `COc1cc2c(c(OC)c1OC)-c1ccc(SC)c(=O)cc1C(N(C)C(=O)C(F)(F)F)CC2` (centres undefined), the T/C (dose: 1.25 mg/kg/injection, schedule: Q01DX009 (ip), vehicle: Klucel (hydroxypropylcellulose) (HPC)) was 109 % of control, the T/C (dose: 2.5 mg/kg/injection, schedule: Q01DX009 (ip), vehicle: Klucel (hydroxypropylcellulose) (HPC)) was 111 % of control and 122 % of control and the T/C (dose: 20.0 mg/kg/injection, schedule: Q01DX009 (ip), vehicle: Klucel (hydroxypropylcellulose) (HPC)) was 89 % of control.

For `O=C(NCCc1ccc(Cl)cc1)c1ccc(Cl)cc1`, the T/C [15] was 96 % of control, the T/C [16] was 97 % of control and the T/C [17] was 91 % of control.

`Nc1ncnc2c1nnn2CC(O)CO` (centres undefined) was tested, and the T/C [18] was 99 % of control and the T/C [19] was 92 % of control.

With `C/C(=N/NC(=S)N1CC2CCC(CC2)C1)c1cnccn1` the T/C (dose: 6.25 mg/kg/injection, schedule: Q01DX005 (ip), vehicle: saline with Tween-80) was 102 % of control and the T/C (dose: 12.5 mg/kg/injection, schedule: Q01DX005 (ip), vehicle: saline with Tween-80) was 117 % of control.

With `O=C1OCC2C3C=CC(O3)C12` (centres undefined) the T/C (dose: 100.0 mg/kg/injection, schedule: Q04DX003 (ip), vehicle: saline) was 100 % of control and the T/C (dose: 200.0 mg/kg/injection, schedule: Q04DX003 (ip), vehicle: saline) was 102 % of control.

With `Cc1ccc(N=Cc2ccc(C=Nc3ccc(C)cc3C)cc2)c(C)c1` the T/C [12] was 92 % of control, the T/C [13] was 91 % of control and the T/C [14] was 97 % of control.

`CCN(CC)c1ccc2cc3ccc(=[N+](CC)CC)cc-3oc2c1` was tested, and the T/C (dose: 1.0 mg/kg/injection, schedule: Q01DX009 (ip), vehicle: saline) was 109 % of control.

`CC(=O)N1C=Cc2ccccc2C1(Br)C1(Br)c2ccccc2C=CN1C(C)=O` (centres undefined) was tested, and the T/C (dose: 25.0 mg/kg/injection, schedule: Q01DX005 (ip), vehicle: saline with Tween-80) was 97 % of control, the T/C [4] was 99 % of control and the T/C [5] was 89 % of control.

With `CN1CCc2c1cc(-c1ccncc1)c1c2N(C)CC1` the T/C [1] was 106 % of control, the T/C [2] was 107 % of control and the T/C [3] was 107 % of control.

With `O=C(O)CC1(C(=O)O)CCC(O)CC1` (centres undefined) the T/C [9] was 100 % of control, the T/C [10] was 107 % of control and the T/C [11] was 100 % of control.

With `C[S+](C)c1ccccc1NC(C)(C)C` the T/C (dose: 6.25 mg/kg/injection, schedule: Q01DX009 (ip), vehicle: saline + alcohol) was 99 % of control, the T/C (dose: 12.5 mg/kg/injection, schedule: Q01DX009 (ip), vehicle: saline + alcohol) was 100 % of control and the T/C (dose: 25.0 mg/kg/injection, schedule: Q01DX009 (ip), vehicle: saline + alcohol) was 96 % of control. The T/C [8] was 101 % of control.

`CCOC(=O)c1ccc(NC(=O)Nc2ccc(NC(C)=O)cc2)cc1` was tested, and the T/C (dose: 15.0 mg/kg/injection, schedule: Q01DX005 (ip), vehicle: Klucel (hydroxypropylcellulose) (HPC)) was 95 % of control, the T/C (dose: 30.0 mg/kg/injection, schedule: Q01DX005 (ip), vehicle: Klucel (hydroxypropylcellulose) (HPC)) was 96 % of control and the T/C [18] was 87 % of control and 88 % of control and 93 % of control. The T/C [19] was 87 % of control and the T/C [20] was 87 % of control.

`C/C=C/COc1cc2c(cc1C(C)c1ccc(OC)cc1)OCO2` (centres undefined) was tested, and the T/C [4] was 107 % of control, the T/C [5] was 106 % of control and the T/C [6] was 119 % of control.

With `CCOc1ccc(C(CC)c2cc3c(cc2OC)OCO3)cc1` (centres undefined) the T/C (dose: 60.0 mg/kg/injection, schedule: Q01DX005 (ip), vehicle: saline + Tween-80 + alcohol) was 100 % of control, the T/C (dose: 120.0 mg/kg/injection, schedule: Q01DX005 (ip), vehicle: saline + Tween-80 + alcohol) was 100 % of control and the T/C (dose: 240.0 mg/kg/injection, schedule: Q01DX005 (ip), vehicle: saline + Tween-80 + alcohol) was 100 % of control.

With `COc1cccc(C2CC(C)(O)Oc3cc4c(cc32)OCO4)c1O` (centres undefined) the T/C [18] was 100 % of control, the T/C [19] was 100 % of control and the T/C [20] was 92 % of control.
